Results published in US8158657B2, “Heterocycles substituted pyridine derivatives and antifungal agent containing thereof” (Eisai R&D Management Co., Ltd., priority 2005, dated 2012).
Converted amounts (≈) assume the structure as drawn. Read-outs that look alike come from different tables or passages of the source.

What was measured:
[1] = test system: C. albicans CAF2-1 strain; test: Anti-Candida activity, MIC measurement; assay type: cell-based; conditions: CAF21STRAIN, read-out: Anti-Candida Activity (minimum inhibitory concentration, MIC)
Method: (§1) For the C. albicans CAF2-1 strain, a fungal suspension from a standing culture for 48 hours at 30° C. in a Sabouraud dextrose liquid culture medium (SDB) was diluted with RPMI1640 medium to adjust a fungal suspension of 1.2×10^3 cells/mL. For the A. fumigatus Tsukuba strain, −80° C. stored strain was diluted with RPMI1640 medium to adjust to a fungal suspension of 4.5×10^3 cells/mL.
(§2) Using a U-bottomed 96 well plate, 8 samples/plate (A to H) of sample dilution solutions were prepared. On the 2nd to 12th rows were dispensed 10 μL of dimethyl sulfoxide solution. Weighted sample was dissolved in dimethyl sulfoxide to prepare a 2.5 mg/mL solution, 20 μL of this solution was added to the first row of the prepared plate, and 12 steps of two-fold step dilutions (10 μL of solution+10 μL of dimethyl sulfoxide solution) were performed on the plate. This sample dilution solution was dispensed in the amount of 1 μL to a flat-bottomed 96 well plate for MIC measurement to prepare a sample dilution plate.
(§3) The fungal suspension prepared in (1) was used in the amount of 99 μL/well to inoculate the flat-bottomed 96 well plate containing 1 μL/well of the test compound dilution prepared in (2), and a standing culture was carried out aerobically for 42-48 hours at 35° C.

[2] = test system: A. fumigatus Tsukuba strain; test: Anti-Aspergillus activity, MIC measurement; assay type: cell-based; conditions: RPMI1640, 42-48 hours at 35° C., visual inspection, read-out: Anti-Aspergillus Activity (minimum inhibitory concentration, MIC)
Method: as §1, §2, §3

[3] = C. albicans CAF2-1, RPMI1640, 42-48 hours at 35° C., visual inspection

SMILES | MIC [1, 3] | MIC [2] | MIC [1]
Nc1ncccc1-c1cc(Cc2ccc(OCC3CC3)cc2)no1 [Example 8, 3-(3-(4-Cyclopropylmethoxy-benzyl)-isoxazol-5-yl)-pyridin-2-ylamine] | 1.56 µg/mL (≈ 4.85 µM) | 0.78 µg/mL (≈ 2.43 µM) | 
Nc1ncccc1-c1cc(Cc2ccc(OCc3ccc(F)c(F)c3)nc2)no1 [Example 89, 3-(3-(6-(3,4-Difluoro-benzyloxy)-pyridin-3-ylmethyl)-isoxazol-5-yl)-pyridin-2-ylamine] | 0.39 µg/mL (≈ 0.989 µM) | 0.2 µg/mL (≈ 0.507 µM) | 
Nc1ncccc1-c1cc(Cc2ccc(CCC3CCCO3)cc2)no1 (stereo not shown) [Example 82, 3-(3-(4-(2-(Tetrahydrofuran-2-yl)-ethyl)-benzyl)-isoxazol-5-yl)-pyridin-2-ylamine] | 0.2 µg/mL (≈ 0.572 µM) | 0.39 µg/mL (≈ 1.12 µM) | 
Nc1ncccc1-c1cc(Cc2ccc(OCc3cccc(F)c3)cc2)no1 [Example 6, 3-(3-(4-(3-Fluoro-benzyloxy)-benzyl)-isoxazol-5-yl)-pyridin-2-ylamine] | 0.39 µg/mL (≈ 1.04 µM) | 0.39 µg/mL (≈ 1.04 µM) | 
Nc1ncccc1-c1cc(Cc2ccc(CCc3ccccn3)cc2)no1 [Example 93, 3-(3-(4-(2-Pyridin-2-yl-ethyl)-benzyl)-isoxazol-5-yl)-pyridin-2-ylamine] | 0.2 µg/mL (≈ 0.561 µM) | 1.56 µg/mL (≈ 4.38 µM) | 
Cc1ccc(-c2cc(Cc3ccc(OCc4ccccc4)cc3)no2)c(N)n1 [Example 170, 3-(3-(4-benzyloxy-benzyl)-isoxazol-5-yl)-6-methyl-pyridin-2-ylamine] | 0.78 µg/mL (≈ 2.1 µM) | 0.39 µg/mL (≈ 1.05 µM) | 
Nc1ccc(-c2cc(Cc3ccc(OCc4ccsc4)cc3)no2)c(N)n1 [Example 136, 3-(3-(4-(Thiophen-3-ylmethoxy)-benzyl)-isoxazol-5-yl)-pyridin-2,6-diamine] | 0.2 µg/mL (≈ 0.528 µM) | 0.2 µg/mL (≈ 0.528 µM) | 
CC(C)=CCOc1ccc(Cc2cc(-c3ccc(N)nc3N)on2)cc1 [Example 218, 3-(3-(4-(3-Methyl-2-but-2-enyloxy)-benzyl)-isoxazol-5-yl)-pyridin-2,6-diamine] |  | 0.1 µg/mL (≈ 0.285 µM) | 0.2 µg/mL (≈ 0.571 µM)
Nc1ncccc1-c1cc(Cc2ccc(COc3ccccc3)cc2)no1 [Example 86, 3-(3-(4-Phenoxymethyl-benzyl)-isoxazol-5-yl)-pyridin-2-ylamine] | 0.05 µg/mL (≈ 0.14 µM) | 0.2 µg/mL (≈ 0.56 µM) | 
Nc1ccc(-c2cc(Cc3ccc(Oc4cncc(Cl)n4)cc3)no2)c(N)n1 [Example 215, 3-(3-(4-(6-Chloro-pyrazin-2-yloxy)-benzyl)-isoxazol-5-yl)-pyridin-2,6-diamine] | 0.39 µg/mL (≈ 0.988 µM) | 0.78 µg/mL (≈ 1.98 µM) | 
Nc1ccc(-c2cc(Cc3ccc(Cc4ccc(Cl)o4)cc3)no2)cn1 [Example 182, 5-(3-(4-(5-Chloro-furan-2-ylmethyl)-benzyl)-isoxazol-5-yl)-pyridin-2-ylamine] | > 25 µg/mL | 0.2 µg/mL (≈ 0.547 µM) | 
Nc1ncccc1-c1cc(Cc2ccc(OCc3ccc(Cl)cn3)cc2)no1 [Example 63, 3-(3-(4-(5-Chloro-pyridin-2-ylmethoxy)-benzyl)-isoxazol-5-yl)-pyridin-2-ylamine] | 0.78 µg/mL (≈ 1.99 µM) | 0.78 µg/mL (≈ 1.99 µM) | 
Nc1ncccc1-c1cnn(Cc2ccc(COC3CCC3)cc2)c1 [Example 197, 3-(1-(4-Cyclobutoxymethyl-benzyl)-1H-pyrazol-4-yl)-pyridin-2-ylamine] | 3.13 µg/mL (≈ 9.36 µM) | 1.56 µg/mL (≈ 4.66 µM) | 
Nc1ncccc1-c1cc(Cc2ccc(CSc3ccccc3)cc2)no1 [Example 206] | 0.1 µg/mL (≈ 0.268 µM) | 0.39 µg/mL (≈ 1.04 µM) | 
Nc1ccc(-c2cc(Cc3ccc(Cc4ccccc4)nc3)no2)c(N)n1 [Example 223, 3-(3-(6-Benzyl-pyridin-3-ylmethyl)-isoxazol-5-yl)-pyridin-2,6-diamine] | 0.39 µg/mL (≈ 1.09 µM) | 0.39 µg/mL (≈ 1.09 µM) | 
Nc1ccc(-c2cc(Cc3ccc(OCc4ccc(F)c(F)c4)nc3)no2)c(N)n1 [Example 152, 3-(3-(6-(3,4-Difluoro-benzyloxy)-pyridin-3-ylmethyl)-isoxazol-5-yl)-pyridin-2,6-diamine] | 0.78 µg/mL (≈ 1.91 µM) | 0.39 µg/mL (≈ 0.953 µM) | 
Nc1ncccc1-c1cc(Cc2ccc(OCc3cccnc3)cc2)no1 [Example 50, 3-(3-(4-(Pyridin-3-ylmethoxy)-benzyl)-isoxazol-5-yl)-pyridin-2-ylamine] | 0.78 µg/mL (≈ 2.18 µM) | 1.56 µg/mL (≈ 4.35 µM) | 
Nc1ccc(-c2cnn(Cc3ccc(Oc4ccccc4)nc3)c2)c(N)n1 [Example 200, 3-(1-(6-Phenoxy-pyridin-3-ylmethyl)-1H-pyrazol-4-yl)-pyridin-2,6-diamine] | 3.13 µg/mL (≈ 8.73 µM) | 3.13 µg/mL (≈ 8.73 µM) | 
Nc1ncccc1-c1cc(Cc2ccc(Oc3cccnc3)cc2)no1 [Example 76, 3-(3-(4-(Pyridin-3-yloxy)-benzyl)-isoxazol-5-yl)-pyridin-2-ylamine] | 1.56 µg/mL (≈ 4.53 µM) | 1.56 µg/mL (≈ 4.53 µM) | 

SMILES | MIC [1, 3] | MIC [2] | MIC [1]
Nc1ccc(-c2cc(Cc3ccc(OCc4ccc(F)cc4)cc3)no2)c(N)n1 [Example 20, 3-(3-(4-(4-Fluoro-benzyloxy)-benzyl)-isoxazol-5-yl)-pyridin-2,6-diamine] | 0.78 µg/mL (≈ 2 µM) | 0.2 µg/mL (≈ 0.512 µM) | 
Cc1cccc(COc2ccc(Cc3cc(-c4cccnc4N)on3)cc2)n1 [Example 10, 3-(3-(4-(6-Methyl-pyridin-2-ylmethoxy)-benzyl)-isoxazol-5-yl)-pyridin-2-ylamine] | 0.39 µg/mL (≈ 1.05 µM) | 0.78 µg/mL (≈ 2.09 µM) | 
Cc1cccc(OCc2ccc(Cc3cc(-c4cccnc4N)on3)cc2)n1 [Example 3, 3-(3-(4-(6-Methyl-pyridin-2-yloxymethyl)-benzyl)-isoxazol-5-yl)-pyridin-2-ylamine] | 0.1 µg/mL (≈ 0.269 µM) | 0.78 µg/mL (≈ 2.09 µM) | 
Nc1ccc(-c2cc(Cc3ccc(OCc4ccc(Cl)cn4)cc3)no2)c(N)n1 [Example 122, 3-(3-(4-(5-Chloro-pyridin-2-ylmethoxy)-benzyl)-isoxazol-5-yl)-pyridin-2,6-diamine] | 1.56 µg/mL (≈ 3.82 µM) | 0.78 µg/mL (≈ 1.91 µM) | 
Nc1ncc(Cl)cc1-c1cc(Cc2ccc(COc3ccccn3)cc2)no1 [Example 172] | 6.25 µg/mL (≈ 15.9 µM) | 12.5 µg/mL (≈ 31.8 µM) | 
Nc1ncccc1-c1cc(Cc2cccc(-c3ccccn3)c2)no1 [Example 84, 3-(3-(3-Pyridin-2-yl-benzyl)-isoxazol-5-yl)-pyridin-2-ylamine] | 3.13 µg/mL (≈ 9.53 µM) | > 25 µg/mL | 
Nc1ncccc1-c1cc(Cc2ccc(Br)cc2)no1 [Example 207, 3-(3-(4-bromo-benzyl)-isoxazol-5-yl)-pyridin-2-ylamine] | 25 µg/mL (≈ 75.7 µM) | 6.25 µg/mL (≈ 18.9 µM) | 
Nc1ccc(-c2cc(Cc3cccc(-c4ccccc4)c3)no2)c(N)n1 [Example 147, 3-(3-Biphenyl-3-ylmethyl-isoxazol-5-yl)-pyridin-2,6-diamine] | 1.56 µg/mL (≈ 4.56 µM) | 1.56 µg/mL (≈ 4.56 µM) | 
COc1cccc(COc2ccc(Cc3cc(-c4cccnc4N)on3)cc2)c1 [Example 98, 3-(3-(4-(3-Methoxy-benzyloxy)-benzyl)-isoxazol-5-yl)-pyridin-2-ylamine] | 0.39 µg/mL (≈ 1.01 µM) | 0.39 µg/mL (≈ 1.01 µM) | 
Nc1ncccc1-c1cc(Cc2ccc(OCc3ccccn3)cc2)on1 [Example 189, 3-(5-(4-(Pyridin-2-ylmethoxy)-benzyl)-isoxazol-3-yl)-pyridin-2-ylamine] | 0.05 µg/mL (≈ 0.14 µM) | 0.2 µg/mL (≈ 0.558 µM) | 
Nc1ncccc1-n1cc(Cc2ccc(OCc3ccccc3)cc2)cn1 [Example 39, 3-(4-(4-Benzyloxy-benzyl)-pyrazol-1-yl)-pyridin-2-ylamine] | 3.13 µg/mL (≈ 8.78 µM) | 3.13 µg/mL (≈ 8.78 µM) | 
C#Cc1cccc(COc2ccc(Cc3cc(-c4ccc(N)nc4N)on3)cc2)c1 [Example 214, 3-(3-(4-(3-Ethynyl-benzyloxy)-benzyl)-isoxazol-5-yl)-pyridin-2,6-diamine] | 0.39 µg/mL (≈ 0.984 µM) | 0.39 µg/mL (≈ 0.984 µM) | 
Nc1ncccc1-c1cc(Cc2ccc(OCc3ccccc3F)cc2)no1 [Example 5, 3-(3-(4-(2-Fluoro-benzyloxy)-benzyl)-isoxazol-5-yl)-pyridin-2-ylamine] | 0.39 µg/mL (≈ 1.04 µM) | 0.39 µg/mL (≈ 1.04 µM) | 
Nc1ccc(-c2cc(Cc3ccc(OCc4ccccn4)c(F)c3)no2)c(N)n1 [Example 150, 3-(3-(3-Fluoro-4-(pyridin-2-ylmethoxy)-benzyl)-isoxazol-5-yl)-pyridin-2,6-diamine] | 0.39 µg/mL (≈ 0.996 µM) | 0.78 µg/mL (≈ 1.99 µM) | 
Nc1ncccc1-c1cc(Cc2ccc(COc3ccc(F)cn3)cc2)no1 [Example 56] | 1.56 µg/mL (≈ 4.14 µM) | > 25 µg/mL | 
Nc1ccc(-c2cc(Cc3ccc(COc4cc(F)ccn4)cc3)no2)c(N)n1 [Example 117, 3-(3-(4-(4-Fluoro-pyridin-2-yloxymethyl)-benzyl)-isoxazol-5-yl)-pyridin-2,6-diamine] | 1.56 µg/mL (≈ 3.99 µM) | 0.78 µg/mL (≈ 1.99 µM) | 
Cc1cccc(COc2ccc(Cc3cc(-c4ccc(N)nc4N)on3)cc2)n1 [Example 23, 3-(3-(4-(6-Methyl-pyridin-2-ylmethoxy)-benzyl)-isoxazol-5-yl)-pyridin-2,6-diamine] | 0.78 µg/mL (≈ 2.01 µM) | 1.56 µg/mL (≈ 4.03 µM) | 
Nc1ncccc1-c1cc(Cc2ccc(OCc3nccs3)cc2)no1 [Example 88, 3-(3-(4-(Thiazol-2-ylmethoxy)-benzyl)-isoxazol-5-yl)-pyridin-2-ylamine] | 0.2 µg/mL (≈ 0.549 µM) | 0.2 µg/mL (≈ 0.549 µM) | 
Nc1ncccc1-c1cc(Cc2ccc(Cc3ccc(F)cc3)o2)no1 [Example 208, 3-(3-(5-(4-Fluoro-benzyl)-furan-2-ylmethyl)-isoxazol-5-yl)-pyridin-2-ylamine] | 6.25 µg/mL (≈ 17.9 µM) | 0.78 µg/mL (≈ 2.23 µM) | 
